Entries after “also recorded” stand apart in the source; their conditions may differ.
What was measured:
L1210 leukemia = settings: earlier work, cited from earlier work
Lewis lung carcinoma = Lewis lung carcinoma in vivo (increase in lifespan); settings: for ILS (percentage increase in lifespan), Lewis lung: i.v. tumour, days 1, 5 and 9, >40% statistically significant
Source text: LL. is the Lewis lung carcinoma.

tumour = assay: antitumour activity in in vivo test systems (summary); settings: compared to unsubstituted AMSA and m-AMSA (for compound 1)
Source text: The compounds of general formula (I) and particularly the examples listed in Tables I and II, have antitumor activity in in vivo test systems, as shown by the data of Tables III and IV.

[1] = Rm from reversed phase partition chromatography (lipophilic-hydrophilic balance)
P388 Leukemia = assay: P388 leukemia in vivo (increase in lifespan); settings: at OD; i.p. tumour, days 1, 5 and 9; >20% statistically significant
physchem = settings: reversed phase partition chromatography

| Compound | chromatographic logP [1] | ILSmax (percentage increase in lifespan), P388 (P388 Leukemia) | other results |
| --- | --- | --- | --- |
| CS(=O)(=O)Nc1ccc(Nc2c3ccccc3nc3ccccc23)cc1 [AMSA, 4'-(9-acridinylamino) methanesulphonanilide] | – | – | antitumour activity on L1210 leukemia (L1210 leukemia): good antitumour activity |
| CNc1cc(NS(C)(=O)=O)ccc1Nc1c2ccccc2nc2ccccc12 [Compound 1] | 0.17 | – | ILS (percentage increase in lifespan), Lewis lung (Lewis lung carcinoma; at OD): 85%; potency and antitumour activity (tumour): increased potency and antitumour activity |
| CNc1cc(NS(C)(=O)=O)ccc1Nc1c2ccccc2nc2cc(F)ccc12 [Compound 5] | 0.28 | – | – |
| CNc1cc(NS(C)(=O)=O)ccc1Nc1c2ccccc2nc2cc(Cl)ccc12 [Compound 6] | 0.36 | – | – |
| CNc1cc(NS(C)(=O)=O)ccc1Nc1c2ccccc2nc2cc(Br)ccc12 [Compound 7] | 0.34 | 94% | – |
| CNc1cc(NS(C)(=O)=O)ccc1Nc1c2ccccc2nc2cc([N+](=O)[O-])ccc12 [Compound 9] | 0.04 | 70% | – |
| CNc1ccc2c(Nc3ccc(NS(C)(=O)=O)cc3NC)c3ccccc3nc2c1 [Compound 10] | 0.18 | – | – |
| CNc1cc(NS(C)(=O)=O)ccc1Nc1c2ccccc2nc2cc(NC(=O)OC)ccc12 [Compound 11] | 0.13 | – | – |
| CNC(=O)c1cccc2c(Nc3ccc(NS(C)(=O)=O)cc3NC)c3ccccc3nc12 [Compound 15] | 0.07 | 82% | – |
| CNc1cc(NS(C)(=O)=O)ccc1Nc1c2cccc(OC)c2nc2c(OC)cccc12 [Compound 26] | – | 84% | – |
| CS(=O)(=O)Nc1ccc(Nc2c3ccccc3nc3ccccc23)c(NCCO)c1 [Compound 27] | 0.07 | 89% | – |
| CS(=O)(=O)Nc1ccc(Nc2c3ccccc3nc3cc(Br)ccc23)c(NCCO)c1 [Compound 28] | 0.11 | – | – |
| Cc1cccc2c(Nc3ccc(NS(C)(=O)=O)cc3NCCO)c3ccccc3nc12 [Compound 29] | 0.02 | – | – |
| CS(=O)(=O)Nc1ccc(Nc2c3ccccc3nc3ccccc23)c(NCC(O)CO)c1 (stereo not drawn) [Compound 30] | 0.3 | 84% | – |
| Cc1cccc2c(Nc3ccc(NS(C)(=O)=O)cc3NCC(O)CO)c3ccccc3nc12 (stereo not drawn) [Compound 31] | 0.21 | 83% | – |
| CN(C)c1cc(NS(C)(=O)=O)ccc1Nc1c2ccccc2nc2ccccc12 [Compound 32] | 0.41 | 212% | cures, Lewis lung (Lewis lung carcinoma; at OD): all cured; ILS (percentage increase in lifespan), Lewis lung (Lewis lung carcinoma; at OD): > 250% |
| Cc1cccc2c(Nc3ccc(NS(C)(=O)=O)cc3N(C)C)c3ccccc3nc12 [Compound 34] | – | – | chromatographic logP (physchem): 0.36 |
| COc1ccc2c(Nc3ccc(NS(C)(=O)=O)cc3N(C)C)c3cccc(C)c3nc2c1 [Compound 41] | – | – | chromatographic logP (physchem): 0.44 |
| CNC(=O)c1cccc2c(Nc3ccc(NS(C)(=O)=O)cc3N(C)C)c3cccc(C)c3nc12 [Compound 44] | – | – | chromatographic logP (physchem): 0.4 |
| CN(CCO)c1cc(NS(C)(=O)=O)ccc1Nc1c2ccccc2nc2ccccc12 [Compound 45] | 0.1 | 100% | – |

| Compound | chromatographic logP [1] | ILSmax (percentage increase in lifespan), P388 (P388 Leukemia) | other results |
| --- | --- | --- | --- |
| CNc1cc(NP(=O)(OC)OC)ccc1Nc1c2ccccc2nc2ccccc12 [Compound 47] | 0.32 | 118% | – |
| CNc1cc(NP(=O)(OC)OC)ccc1Nc1c2ccccc2nc2cc(Br)ccc12 [Compound 48] | 0.62 | 77% | – |
| CNc1cc(NP(=O)(OC)OC)ccc1Nc1c2ccccc2nc2c(C)cccc12 [Compound 49] | 0.47 | 91% | – |
| CNc1cc(NC(=O)OC)ccc1Nc1c2ccccc2nc2ccccc12 [Compound 50] | 0.51 | – | – |
| COC(=O)Nc1ccc(Nc2c3ccccc3nc3ccccc23)c(NCCO)c1 [Compound 51] | 0.39 | – | – |
| CNc1cc(NC(=O)OC)ccc1Nc1c2ccccc2nc2cc(C)ccc12 [Compound 52] | 0.78 | 86% | – |
| CNc1cc(NC(=O)OC)ccc1Nc1c2ccccc2nc2cc(F)ccc12 [Compound 53] | 0.63 | 110% | – |
| CNc1cc(NC(=O)OC)ccc1Nc1c2ccccc2nc2cc(Cl)ccc12 [Compound 54] | 0.73 | – | – |
| CNc1cc(NC(=O)OC)ccc1Nc1c2ccccc2nc2cc(Br)ccc12 [Compound 55] | 0.7 | – | – |
| CNc1cc(NC(=O)OC)ccc1Nc1c2ccccc2nc2c(C)cccc12 [Compound 58] | 0.56 | – | ILS (percentage increase in lifespan), Lewis lung (Lewis lung carcinoma; at OD): 48% |
| COC(=O)Nc1ccc(Nc2c3ccccc3nc3ccccc23)c(N(C)C)c1 [Compound 59] | 0.56 | 51% | – |
| CNc1cc(NS(=O)(=O)c2ccccc2)ccc1Nc1c2ccccc2nc2ccccc12 [Compound 60] | 0.55 | – | – |
| O=S(=O)(Nc1ccc(Nc2c3ccccc3nc3ccccc23)c(NCCO)c1)c1ccccc1 [Compound 61] | 0.35 | 81% | – |
| CNc1cc(NS(=O)(=O)c2ccc(N)cc2)ccc1Nc1c2ccccc2nc2ccccc12 [Compound 62] | 0.03 | – | – |
| CNc1cc(NS(=O)(=O)c2ccc(N)cc2)ccc1Nc1c2ccccc2nc2cc(Br)ccc12 [Compound 63] | 0.29 | – | – |
| CNc1cc(NS(=O)(=O)c2ccc(N)cc2)ccc1Nc1c2ccccc2nc2c(C)cccc12 [Compound 64] | 0.13 | – | – |
| Nc1ccc(S(=O)(=O)Nc2ccc(Nc3c4ccccc4nc4ccccc34)c(NCCO)c2)cc1 [Compound 65] | 0.18 | 50% | – |
| CNc1cc(NC(=O)Oc2ccccc2)ccc1Nc1c2ccccc2nc2ccccc12 [Compound 66] | 0.76 | 71% | – |
| COc1cc(NS(C)(=O)=O)ccc1Nc1c2ccccc2nc2ccccc12 [m-AMSA, 4'-(9-acridinylamino)methanesulphon-m-anisidide, reference compound] | – | 78% | ILS (percentage increase in lifespan), Lewis lung (Lewis lung carcinoma; at OD): 38%; active, Lewis lung (Lewis lung carcinoma; at the stated dose (OD)): Y/N; Lewis lung activity in words (Lewis lung carcinoma; tumour implanted intravenously): minimal activity; also recorded: strictly inactive; dose potency of 3'-methoxy derivative (L1210 leukemia; vs AMSA): increased dose potency |

Further lines, with some results ahead:

| chromatographic logP [1] | Compound | ILSmax (percentage increase in lifespan), P388 (P388 Leukemia) | other results |
| --- | --- | --- | --- |
| 0.39 | CNc1cc(NS(C)(=O)=O)ccc1Nc1c2ccccc2nc2cc(C)ccc12 [Compound 3] | 83% | – |
| 0.21 | CNc1cc(NS(C)(=O)=O)ccc1Nc1c2ccccc2nc2cc(OC)ccc12 [Compound 4] | 140% | – |
| 0.35 | CNc1cc(NS(C)(=O)=O)ccc1Nc1c2ccccc2nc2cc(I)ccc12 [Compound 8] | 80% | – |
| 0.19 | CNc1cc(NS(C)(=O)=O)ccc1Nc1c2ccccc2nc2c(C)cccc12 [Compound 12] | – | – |
| 0.12 | CNc1cc(NS(C)(=O)=O)ccc1Nc1c2ccccc2nc2c(OC)cccc12 [Compound 13] | – | – |
| 0.38 | CNc1cc(NS(C)(=O)=O)ccc1Nc1c2ccc(C)cc2nc2c(C)cccc12 [Compound 16] | 92% | – |
| 0.31 | CNc1cc(NS(C)(=O)=O)ccc1Nc1c2ccc(OC)cc2nc2c(C)cccc12 [Compound 17] | – | – |
| 0.31 | CNc1cc(NS(C)(=O)=O)ccc1Nc1c2ccc(F)cc2nc2c(C)cccc12 [Compound 18] | – | – |
| 0.4 | CNc1cc(NS(C)(=O)=O)ccc1Nc1c2ccc(Cl)cc2nc2c(C)cccc12 [Compound 19] | – | – |
| 0.38 | CNc1cc(NS(C)(=O)=O)ccc1Nc1c2ccc(Br)cc2nc2c(C)cccc12 [Compound 21] | – | – |
| 0.33 | CNc1cc(NS(C)(=O)=O)ccc1Nc1c2ccc(C)cc2nc2c(OC)cccc12 [Compound 22] | – | – |
| 0.23 | CNC(=O)c1cccc2c(Nc3ccc(NS(C)(=O)=O)cc3NC)c3ccc(Cl)cc3nc12 [Compound 23] | 59% | – |
| 0.23 | CNC(=O)c1cccc2c(Nc3ccc(NS(C)(=O)=O)cc3NC)c3cccc(C)c3nc12 [Compound 24] | 94% | – |
| 0.16 | CNc1cc(NS(C)(=O)=O)ccc1Nc1c2cccc(C)c2nc2c(C)cccc12 [Compound 25] | – | – |
| 0.67 | CNc1cc(NC(=O)OC)ccc1Nc1c2ccc(Cl)cc2nc2c(C)cccc12 [Compound 56] | – | ILS (percentage increase in lifespan), Lewis lung (Lewis lung carcinoma; at OD): 100% |
| 0.69 | CNc1cc(NC(=O)OC)ccc1Nc1c2ccc(Br)cc2nc2c(C)cccc12 [Compound 57] | 97% | ILS (percentage increase in lifespan), Lewis lung (Lewis lung carcinoma; at OD): 82% |
